Data published in US20240197728A1, “METHODS AND PHARMACEUTICAL COMPOSITIONS FOR TREATING REFRACTORY EPILEPSY” (INSERM (INSTITUT NATIONAL DE LA SANTÉ ET DE LA RECHERCHE …, priority 2021, published 2024).

Legend:
OSR1 = test: Immunoblot of OSR1 phosphorylation and expression in hippocampo-cortical slices; assay type: cell-based, rat; settings: vs DMSO
Procedure: (§1) For all experiments on hippocampal cultures, neurons were pre-incubated for 2 hours with either DMSO, PCPZ or CLP257 in a CO2 incubator set at 37° C. Drugs were added directly to the culture medium. For electrophysiology experiments, neurons were also recorded in presence of these drugs in the bath. For biochemistry experiments on rat hippocampo-cortical slices, slices were incubated with either DMSO (vehicle), CLP257, PCPZ, WNK463 or sodium orthovanadate for 2 hours in interface chambers set at 37° C. For human tissue experiments, slices were pre-incubated with either DMSO, CLP257 or PCPZ for 2 hours in interface chambers set at 37° C. and then also recorded in presence of these compounds.
(§2) 8-weeks old Sprague Dawley male rats were anesthetized by intraperitoneal ketamine/xylazine injection (120/10 mg/kg) and perfused transcardially with ice-cold (0-4° C.), oxygenated solution (O2/CO2 95/5%), containing (in mM): N-methyl-d-glucamine 93, KCl 2.5, NaH2PO4 1.2, NaHCO330, HEPES 20, D-glucose 20, ascorbic acid 5, sodium pyruvate 3, MgSO4 10 and CaCl2) 0.5 (300-310 mOsm, pH7.4). Brains were removed and transverse hippocampo-cortical slices (400 m thick) were prepared in the same solution using a vibratome (HM650V, Microm). Slices were then incubated for 2-hours with DMSO, the KCC2 enhancers (CLP257, PCPZ, WNK43) or sodium orthovanadate in an interface chamber containing artificial cerebrospinal fluid (ACSF) composed of (in mM): D-glucose 10, KCl 3.5, NaHOC3 26, NaH2PO4 1.25, NaCl 126, CaCl2) 1.6 and MgCl2 1.2 (290 mOsm), equilibrated with 5% CO2 in 95% 02. After the treatments, slices were washed with cold PBS, instantaneously frozen with liquid nitrogen and stored at −80° C.
(§3) Slices were mechanically lysed on ice, using a 2 mL Dounce, in a buffer containing (in mM): Tris/HCl, pH 7.5 50, EGTA 1, EDTA 1, sodium orthovanadate 1, sodium-B-glycerophosphate 10, sodium fluoride 50, sodium pyrophosphate 5, sucrose 270, benzamidine 1, phenylmethylsulfonyl fluoride 2, Triton […], (v/v) 2-mercaptoethanol 0.1% and protease inhibitors (Roche). After complete homogenization, samples were centrifuged (16,000×g at 4° C. for 10 min) and the supernatant was collected. Protein quantification was done using Pierce BCA Protein Assay kit (Thermo Scientific) with BSA as standard.
Samples were subjected to electrophoresis on polyacrylamide gradient gels (4-12% bis-tris gels) and transferred to nitrocellulose membranes. Membranes were rinsed with TBS-tween solution (TBST; Invitrogen) and blocked with 5% (w/v) skim milk. The membranes were then immunoblotted in 5% (w/v) skim milk in TBST with a primary antibody against KCC2 (rabbit, 07-432; Millipore; 1:1000), or phosphotyrosine (mouse, clone 4G10, Millipore, 1:1000), and a mouse primary antibody against neuron-specific beta-III tubulin overnight at 4° C. (clone 2G10; T8578; Sigma-Aldrich; 1:1000). They were then washed three times with distillated water, three times with TBST-milk solution and incubated for one hour at RT with goat secondary antibodies anti-rabbit IRDye 800 (1:3000; LI-COR), goat anti-mouse IRDye 700 (1:3000; LI-COR) or donkey anti-sheep DyLight 800 (1:3000; Rockland). Membranes were then washed again with TBST three times and one time with TBS. Fluorescence was detected and the relative intensities of immunoblot bands were determined using Odyssey infrared imaging system (LI-COR Bioscience). […]

[1] = system: extrasynaptic GABAA receptors; test: GABAA receptor-mediated currents evoked by focal isoguvacine or RubiGABA uncaging; assay type: cell-based, rat
SPAK = test: Immunoblot of SPAK phosphorylation and expression in hippocampo-cortical slices; assay type: cell-based, rat; settings: vs DMSO
Procedure: as §1, §2, §3
Samples were subjected to electrophoresis on polyacrylamide gradient gels (4-12% bis-tris gels) and transferred to nitrocellulose membranes. Membranes were rinsed with TBS-tween solution (TBST; Invitrogen) and blocked with 5% (w/v) skim milk. […] Fluorescence was detected and the relative intensities of immunoblot bands were determined using Odyssey infrared imaging system (LI-COR Bioscience). […]

[2] = system: spontaneous interictal-like discharges (IIDs) in slices from mTLE patients; test: Multielectrode array recording of postoperative hippocampal-subicular slices from mTLE patients; assay type: cell-based, human; settings: for effect on proportion of slices displaying IIDs: p<0.05
Procedure: as §1
Patients or their legal guardians gave informed consent to participate in the study. Patients ([…], 3 males, 4 female, age range: 16-54 years) diagnosed with mesial temporal lobe epilepsy with hippocampal sclerosis underwent multimodal preoperative neurological, neurophyschological and psychiatric evaluations as well as video-electroencephalographic recording, magnetic resonance imaging and fluorodeooxyglugose positron emission tomography. Cortectomies were performed at Sainte-Anne Hospital by neurosurgeons B. Devaux and B. Turak and at Pitié-Salpêtriére Hospital by neurosurgeons S. Clemenceau and B. Mathon. Cortical specimens collected in the operating room were immediately transported in ice-cold (0-4° C.), oxygenated solution (O2/CO2 95/5%), containing (in mM): N-methyl-d-glucamine 93, KCl 2.5, NaH2PO4 1.2, NaHCO3 30, HEPES 20, D-glucose 20, ascorbic acid 5, sodium pyruvate 3, MgSO4 10 and CaCl2 0.5 (300-310 mOsm, pH7.4) and transported within 15 minutes to the laboratory. Transverse hippocampal-subicular slices (400 m thick) were prepared in the same solution using a vibratome (HM650V, Microm). They were maintained for 20-30 minutes at 37° C. and then at room temperature in an interface chamber containing artificial cerebrospinal fluid (ACSF) composed of (in mM): D-glucose 10, KCl 3.5, NaHOC3 26, NaH2PO4 1.25, NaCl 126, CaCl2 1.6 and MgCl2 1.2 (290 mOsm), equilibrated with 5% CO2 in 95% 02.
Multielectrode array recordings were performed using a MEA2100 station (Multi Channel Systems) equipped with a 120-microelectrode array chamber (custom 12×10 layout, 30 μm TiN electrodes spaced 1 mm vertical and 1.5 mm horizontal). Slices were maintained in the recording chamber using a home-made platinum-nylon harp and superfused with pre-warmed (37° C.) oxygenated ACSF at a rate of 6 ml/min. Slices were imaged using a video-microscope table (MEA-VMT1, Multi Channel Systems) in order to register the location of electrodes with respect to the slice. Extracellular signals were acquired at a sampling rate of 10 kHz using Multi Channel Experimenter (Multi Channel Systems) and analyzed offline using homemade software (Matlab, The Mathworks).

[3] = 100 μM CLP257, 2 h, slices from 5 out of 6 patients
[4] = 100 μM CLP257, 2 h, slices from the remaining patient

SMILES: O=C1N=C(N2CCCCN2)S/C1=C\c1ccc(F)cc1O [CLP257, (5Z)-5-[(4-Fluoro-2-hydroxyphenyl)methylene]-2-(tetrahydro-1-(2H)-pyridazinyl)-4(5H)-thiazolone]
- change of OSR1 phosphorylation (S325 residue) (OSR1; 100 μM CLP257, 2 h): +11.50±18.50%
- change of total expression of OSR1 (OSR1; 100 μM CLP257, 2 h): −2.24±8.27%
- decay time constant of GABAA receptor-mediated currents ([1]; 100 μM CLP257, RubiGABA 30 μM, control 124.39±9.12): 218.22 ± 21.05 ms
- amplitude of GABAA receptor-mediated currents ([1]; 100 μM CLP257, RubiGABA 30 μM, control 164.70±4.56): 162.04±6.62 pA
- change of SPAK phosphorylation (S373 residue) (SPAK; 100 μM CLP257, 2 h): +33.30±24.00%
- change of total expression of SPAK (SPAK; 100 μM CLP257, 2 h): −5.97±17.4%
- patients whose slices showed reduced IID frequency ([2]; 100 μM CLP257, 2 h): 5 out of 6
- change of IID amplitude [2, 3]: +134.4%
- reduction of IID frequency [2, 3]: 96.5±2.31%
- change of IID amplitude [2, 4]: −24.5%
- change of IID frequency [2, 4]: +12.6%
- effect on proportion of slices displaying IIDs ([2]; 100 μM CLP257, 2 h incubation vs DMSO): significantly reduced

SMILES: CN1CCN(CCCN2c3ccccc3Sc3ccc(Cl)cc32)CC1 [PCPZ, prochlorperazine]
- change of OSR1 phosphorylation (S325 residue) (OSR1; 10 μM PCPZ, 2 h): +11.80±23.50%
- change of total expression of OSR1 (OSR1; 10 μM PCPZ, 2 h): +26.3±12.8%
- decay time constant of GABAA receptor-mediated currents ([1]; acute 10 μM PCPZ, isoguvacine 100 μM, control 127.66±10.23): 130.81 ± 10.48 ms
- amplitude of GABAA receptor-mediated currents ([1]; acute 10 μM PCPZ, isoguvacine 100 μM, control 150.73±17.50): 157.51±25.46 pA
- change of SPAK phosphorylation (S373 residue) (SPAK; 10 μM PCPZ, 2 h): +36.90±48.40%
- mTLE patients whose slices showed suppressed IIDs ([2]; 10 μM PCPZ, 2 h): 5 out of 7
- change of IID amplitude ([2]; 10 μM PCPZ, 2 h, group I (5 mTLE patients)): +9.0%
- reduction of IID frequency ([2]; 10 μM PCPZ, 2 h, group I (5 mTLE patients, responders)): 97.55±13.8%
- change of IID amplitude ([2]; 10 μM PCPZ, 2 h, group II (2 patients)): +18.2±4.8%
- change of IID frequency ([2]; 10 μM PCPZ, 2 h, group II (2 patients, non-responders)): +25.5±15.9%
- effect on proportion of slices displaying IIDs ([2]; 10 μM PCPZ, 2 h incubation vs DMSO): significantly reduced
